Earlier results in US20170143824A1 (Teva Pharmaceutical Industries, Ltd., priority 2013, published 2017).

Tested on: patients with RRMS
Conditions: registration trials, compared with placebo

L-glutamic acid polymer with L-alanine, L-lysine, L-tyrosine, acetate (salt) [glatiramer acetate]
reduction of relapse rate: about one third
